Experimental data reported in ChEMBL document CHEMBL4715814, “Design, synthesis and biological activity evaluation of novel 4-subtituted 2-naphthamide derivatives as AcrB inhibitors” (2018).
Activity calls are given as the source filed them. No cut-off for these calls is given here.

Legend:
[1] = system: Cell membrane; assay: Induction of outer membrane permeabilization in wild type Escherichia coli BW25113 assessed as increase in nitrocefin hydrolysis at 512 ug/ml measured for 30 mins in presence of CCCP by spectrophotometry analysis; format: subcellular; details: dose 512.0 µg/ml
[2] = system: Cell membrane; assay: Disruption of inner membrane potential in wild type Escherichia coli BW25113 at 512 ug/ml preincubated for 10 mins followed by glucose stimulation and CCCP addition by DiOC2 probe based fluorimetric analysis; format: subcellular; details: dose 512.0 µg/ml
[3] = system: Escherichia coli; assay: Potentiation of rifampicin-induced antibacterial activity against wild type Escherichia coli BW25113 assessed as rifampicin MIC at 256 ug/ml incubated for 18 hrs under aerobic condition by checkerboard titration assay (reference value: 16 ug/ml); format: functional; details: dose 256 µg/ml
[4] = system: Escherichia coli; assay: Potentiation of TPP-induced antibacterial activity against AcrB deficient Escherichia coli BW25113 assessed as TPP MIC at 512 ug/ml incubated for 18 hrs under aerobic condition by checkerboard titration assay (reference value: 256 ug/ml); format: functional; details: dose 512 µg/ml
[5] = system: Escherichia coli; assay: Potentiation of TPP-induced antibacterial activity against wild type Escherichia coli BW25113 assessed as fold reduction in TPP MIC at 256 ug/ml incubated for 18 hrs under aerobic condition by checkerboard titration assay relative to TPP MIC alone; format: functional; details: dose 256 µg/ml
[6] = system: Escherichia coli; assay: Potentiation of rifampicin-induced antibacterial activity against wild type Escherichia coli BW25113 assessed as rifampicin MIC at 128 ug/ml incubated for 18 hrs under aerobic condition by checkerboard titration assay (reference value: 16 ug/ml); format: functional; details: dose 128 µg/ml
[7] = system: Escherichia coli; assay: Potentiation of chloramphenicol-induced antibacterial activity against wild type Escherichia coli BW25113 assessed as chloramphenicol MIC at 256 ug/ml incubated for 18 hrs under aerobic condition by checkerboard titration assay (reference value: 16 ug/ml); format: functional; details: dose 256 µg/ml
[8] = system: Escherichia coli; assay: Potentiation of chloramphenicol-induced antibacterial activity against wild type Escherichia coli BW25113 assessed as chloramphenicol MIC at 128 ug/ml incubated for 18 hrs under aerobic condition by checkerboard titration assay (reference value: 16 ug/ml); format: functional; details: dose 128 µg/ml
[9] = system: Escherichia coli; assay: Potentiation of erythromycin-induced antibacterial activity against wild type Escherichia coli BW25113 assessed as erythromycin MIC at 128 ug/ml incubated for 18 hrs under aerobic condition by checkerboard titration assay (reference value: 128 ug/ml); format: functional; details: dose 128 µg/ml
[10] = system: Escherichia coli; assay: Potentiation of TPP-induced antibacterial activity against wild type Escherichia coli BW25113 assessed as TPP MIC at 128 ug/ml incubated for 18 hrs under aerobic condition by checkerboard titration assay (reference value: 1024 ug/ml); format: functional; details: dose 128 µg/ml
[11] = system: Escherichia coli; assay: Potentiation of erythromycin-induced antibacterial activity against wild type Escherichia coli BW25113 assessed as erythromycin MIC at 256 ug/ml incubated for 18 hrs under aerobic condition by checkerboard titration assay (reference value: 128 ug/ml); format: functional; details: dose 256 µg/ml
[12] = system: Escherichia coli; assay: Potentiation of chloramphenicol-induced antibacterial activity against AcrB deficient Escherichia coli BW25113 assessed as chloramphenicol MIC at 512 ug/ml incubated for 18 hrs under aerobic condition by checkerboard titration assay (reference value: 2 ug/ml); format: functional; details: dose 512 µg/ml
[13] = system: Escherichia coli; assay: Potentiation of TPP-induced antibacterial activity against wild type Escherichia coli BW25113 assessed as TPP MIC at 256 ug/ml incubated for 18 hrs under aerobic condition by checkerboard titration assay (reference value: 1024 ug/ml); format: functional; details: dose 256 µg/ml
[14] = system: Escherichia coli; assay: Potentiation of TPP-induced antibacterial activity against wild type Escherichia coli BW25113 assessed as TPP MIC at 512 ug/ml incubated for 18 hrs under aerobic condition by checkerboard titration assay (reference value: 1024 ug/ml); format: functional; details: dose 512 µg/ml
[15] = system: Escherichia coli; assay: (§1) Antibacterial activity against Wild type Escherichia coli BW25113 assessed as inhibition of AcrB efflux pump by mesuring the glucose-induced nile red efflux at 100 uM preincubated with CCCP for 15 mins followed by compound addition after 15 mins nile red added and incubated for 3 hrs in shaker by fluorimetric analysis; format: functional, organism-based; details: time 195.0 min
[16] = system: Escherichia coli; assay: Potentiation of erythromycin-induced antibacterial activity against AcrB deficient Escherichia coli BW25113 assessed as erythromycin MIC at 512 ug/ml incubated for 18 hrs under aerobic condition by checkerboard titration assay (reference value: 32 ug/ml); format: functional; details: dose 512 µg/ml
[17] = system: Escherichia coli; assay: Potentiation of erythromycin-induced antibacterial activity against wild type Escherichia coli BW25113 assessed as erythromycin MIC at 512 ug/ml incubated for 18 hrs under aerobic condition by checkerboard titration assay (reference value: 128 ug/ml); format: functional; details: dose 512 µg/ml
[18] = system: Escherichia coli; assay: Potentiation of chloramphenicol-induced antibacterial activity against wild type Escherichia coli BW25113 assessed as chloramphenicol MIC at 512 ug/ml incubated for 18 hrs under aerobic condition by checkerboard titration assay (reference value: 16 ug/ml); format: functional; details: dose 512 µg/ml
[19] = system: Escherichia coli; assay: Potentiation of TPP-induced antibacterial activity against AcrB deficient Escherichia coli BW25113 assessed as TPP MIC at 256 ug/ml incubated for 18 hrs under aerobic condition by checkerboard titration assay (reference value: 256 ug/ml); format: functional; details: dose 256 µg/ml
[20] = system: Escherichia coli; assay: Potentiation of chloramphenicol-induced antibacterial activity against AcrB deficient Escherichia coli BW25113 assessed as chloramphenicol MIC at 256 ug/ml incubated for 18 hrs under aerobic condition by checkerboard titration assay (reference value: 2 ug/ml); format: functional; details: dose 256 µg/ml
[21] = system: Escherichia coli; assay: Potentiation of rifampicin-induced antibacterial activity against wild type Escherichia coli BW25113 assessed as rifampicin MIC at 512 ug/ml incubated for 18 hrs under aerobic condition by checkerboard titration assay (reference value: 16 ug/ml); format: functional; details: dose 512 µg/ml
[22] = system: Escherichia coli; assay: as §1, with “500” for “100”; format: functional, organism-based; details: time 195.0 min
[23] = system: Escherichia coli; assay: Potentiation of chloramphenicol-induced antibacterial activity against wild type Escherichia coli BW25113 assessed as fold reduction in chloramphenicol MIC at 256 ug/ml incubated for 18 hrs under aerobic condition by checkerboard titration assay relative to chloramphenicol MIC alone; format: functional; details: dose 256 µg/ml
[24] = system: Escherichia coli; assay: Potentiation of erythromycin-induced antibacterial activity against AcrB deficient Escherichia coli BW25113 assessed as erythromycin MIC at 256 ug/ml incubated for 18 hrs under aerobic condition by checkerboard titration assay (reference value: 32 ug/ml); format: functional; details: dose 256 µg/ml

| Activity [1] | Activity [2] | MIC [3] [µg/mL] | MIC [4] [µg/mL] | MIC [6] [µg/mL] | MIC [7] [µg/mL] | MIC [8] [µg/mL] | MIC [9] [µg/mL] | MIC [10] [µg/mL] | MIC [11] [µg/mL] | MIC [12] [µg/mL] | MIC [13] [µg/mL] | MIC [14] [µg/mL] | MIC [17] [µg/mL] | MIC [18] [µg/mL] | MIC [19] [µg/mL] | MIC [20] [µg/mL] | SMILES | fold change (FC) [5] | MIC [16] [µg/mL] | MIC [21] [µg/mL] | other results |
| --- | --- | --- | --- | --- | --- | --- | --- | --- | --- | --- | --- | --- | --- | --- | --- | --- | --- | --- | --- | --- | --- |
| Active | Active | 4 | 256 | 16 | 4 | 8 | 128 | 1020 | 128 | 2 | 256 | – | – | – | – | – | CCCCCCNC(=O)c1cc(OCc2ccccc2)c2ccccc2c1 | 4 | – | – | – |
| – | – | 16 | 256 | – | 16 | – | – | – | 64 | 2 | 1020 | 1020 | 32 | 16 | – | – | O=C(NC1CCCCC1)c1cc(OCc2ccccc2)c2ccccc2c1 | – | 32 | – | Activity [15]: Active |
| Active | Active | 16 | – | – | 16 | – | – | – | 128 | – | 1020 | 512 | 128 | 16 | 256 | 2 | O=C(Nc1ccccc1)c1cc(OCc2ccccc2)c2ccccc2c1 | – | – | 8 | Activity [22]: Active |
| inactive | inactive | 8 | – | 8 | 4 | 8 | 128 | 1020 | 128 | – | 256 | – | – | – | 256 | 2 | NC(=O)c1cc(OCCNCc2ccc(O)cc2)c2ccccc2c1 | 4 | – | – | fold change (FC) [23]: 4; Activity [22]: inactive; MIC [24]: 32 µg/mL |

| SMILES | Activity [1] | Activity [2] | MIC [3] [µg/mL] | MIC [4] [µg/mL] | MIC [6] [µg/mL] | MIC [7] [µg/mL] | MIC [8] [µg/mL] | MIC [9] [µg/mL] | MIC [10] [µg/mL] | MIC [11] [µg/mL] | MIC [12] [µg/mL] | MIC [13] [µg/mL] | MIC [14] [µg/mL] | MIC [17] [µg/mL] | MIC [18] [µg/mL] | MIC [19] [µg/mL] | MIC [20] [µg/mL] | fold change (FC) [5] | MIC [16] [µg/mL] | MIC [21] [µg/mL] | other results |
| --- | --- | --- | --- | --- | --- | --- | --- | --- | --- | --- | --- | --- | --- | --- | --- | --- | --- | --- | --- | --- | --- |
| CC(C)CCOc1cc(C(N)=O)cc2ccccc12 | – | – | 16 | 256 | – | 8 | – | – | – | 64 | 2 | 512 | 256 | 32 | 4 | – | – | – | 32 | 16 | – |
